Measurements as given in patent US10787434B2, “Benzopiperdine derivatives and their use in the treatment of cancer and hemoglobinopathies” (CTXT PTY LTD, priority 2016, dated 2020).
Counter-ions that a name gives are not always drawn.

What was measured:
[1] = biological target: Full-length PRMT5 enzyme co-expressed with His6-MEP50 (Homo sapiens (Human), UniProt O14744); test: PRMT5 Biochemical Assay; details: Transcreener EPIGEN methyltransferase assay, histone H4 derived peptide substrate, 4 hours at 37 degree Celsius
Full-length PRMT5 enzyme co-expressed with His6-MEP50, sequence (O14744 whole entry): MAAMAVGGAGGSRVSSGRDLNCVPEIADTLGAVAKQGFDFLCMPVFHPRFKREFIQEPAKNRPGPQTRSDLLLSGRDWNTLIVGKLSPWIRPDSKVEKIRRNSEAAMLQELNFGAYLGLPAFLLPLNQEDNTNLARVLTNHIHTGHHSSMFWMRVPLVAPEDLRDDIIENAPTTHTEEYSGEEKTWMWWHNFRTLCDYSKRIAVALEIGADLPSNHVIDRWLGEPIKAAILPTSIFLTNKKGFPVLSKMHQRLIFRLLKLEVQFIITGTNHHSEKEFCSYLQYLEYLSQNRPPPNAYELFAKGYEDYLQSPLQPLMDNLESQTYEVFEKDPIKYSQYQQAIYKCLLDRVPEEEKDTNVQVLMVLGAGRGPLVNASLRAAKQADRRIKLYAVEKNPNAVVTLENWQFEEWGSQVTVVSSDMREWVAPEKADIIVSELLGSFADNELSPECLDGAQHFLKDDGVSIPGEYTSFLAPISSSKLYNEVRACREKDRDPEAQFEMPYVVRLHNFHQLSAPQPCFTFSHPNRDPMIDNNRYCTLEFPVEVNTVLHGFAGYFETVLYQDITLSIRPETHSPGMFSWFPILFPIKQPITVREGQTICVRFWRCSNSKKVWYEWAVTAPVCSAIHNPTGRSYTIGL
Full-length PRMT5 enzyme co-expressed with His6-MEP50, sequence (Q9BQA1 whole entry partner): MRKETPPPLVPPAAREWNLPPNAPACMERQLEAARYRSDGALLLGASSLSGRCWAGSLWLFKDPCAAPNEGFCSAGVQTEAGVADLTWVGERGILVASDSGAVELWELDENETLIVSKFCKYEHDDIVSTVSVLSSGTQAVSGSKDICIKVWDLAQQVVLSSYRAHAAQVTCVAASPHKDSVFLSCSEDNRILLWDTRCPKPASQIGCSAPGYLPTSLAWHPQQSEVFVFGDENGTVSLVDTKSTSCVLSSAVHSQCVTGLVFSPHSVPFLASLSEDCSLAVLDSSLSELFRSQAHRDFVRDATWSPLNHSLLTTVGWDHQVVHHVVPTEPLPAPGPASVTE
Procedure: Compounds of the invention may be tested for in vitro activity in the following assay:
A histone H4 derived peptide is used as substrate (amino acid sequence: […]NH2). Full-length PRMT5 enzyme (NCBI Reference sequence NP_006100.2) was co-expressed with His6-MEP50 in insect cells and purified via Nickel immobilized metal affinity and gel filtration chromatography (“the enzyme”).
The 6 μL reactions are run in Greiner brand black 384-well low volume assay plates. All reactions contained assay buffer (phosphate buffered saline, 0.01% (v/v) Tween-20, 0.01% (w/v) albumin from chicken egg white, 1 mM Dithiothreitol, 1 μM peptide substrate, 1 μM S-Adenosyl methionine, and 15 ng/reaction enzyme, with the enzyme being omitted from negative control reactions. Compounds were added in a volume of 100 nL from dilution series prepared in DMSO, positive and negative control reactions receiving the same volume DMSO without compound. The plates were sealed with adhesive seals and incubated for 4 hours at 37 degree Celsius. Reaction progress was measured using the Transcreener™ EPIGEN methyltransferase assay (BellBrook Labs, Madison, Wis.) as recommended by the manufacturer. To each reaction 2 μL detection mix were added, containing coupling enzymes, fluorescence polarisation tracer, and AMP antibody. Plates were incubated for 90 minutes before being read on a PerkinElmer EnVision™ plate reader in fluorescence polarisation mode. IC50 values were obtained from the raw readings by calculating percent inhibition (%1) for each reaction relative to controls on the same plate (% I=(I−CN)/(CP−CN) where CN/CP are the averages of the negative/positive reactions, respectively), then fitting the %1 data vs. compound concentration [I] to % I=(A+((B−A)/(1+((C/[I])^D)))) where A is the lower asymptote, B is the upper asymptote, C is the IC50 value, and D is the slope.

[2] = system: symmetrical dimethylation of arginine (Di-Methyl Histone H4 Arginine 3) in cell line TE11; test: PRMT5 Biomarker Assay; assay type: cell-based; details: Homo sapiens, TE-11; TE11 cells, 72 hours incubation, mean Alexa647-related intensity per cell
Procedure: PRMT5 Biomarker Assay Compounds of the invention may be tested for potency to inhibit symmetrical dimethylation of arginine in the following assay: The cell line TE11 was seeded at a density of 6,000 cells per well in 96 well optical quality tissue culture plates in DME medium and 10% foetal bovine serum, and allowed to adhere for 5 hours under standard culture conditions (37 degree Celsius, 5% CO2). Compound dilutions prepared in DMSO were added to the medium, with negative control wells reserved for treatment with DMSO only and maximum inhibition controls receiving a potent PRMT5 inhibitor compound at 1 μM concentration. After incubation for 72 hours, the cells were fixed with 3.7% formaldehyde in PBS for 30 minutes at room temperature, washed with phosphate buffer saline and blocked with Odyssey blocking buffer (LI-COR, Lincoln, Nebr.). Rabbit anti-Di-Methyl Histone H4 Arginine 3 specific antibody (Epigentek) in Odyssey blocking buffer was added and incubated for 14 hours at 4 degree Celsius. After washing, anti-rabbit secondary antibody labelled with Alexa647 dye (LifeTechnologies) and Hoechst 33342 (1 μg/mL, SigmaAldrich) were added for 1 hour incubation. Plates were washed and read on a PerkinElmer Envision 2103 in fluorescence intensity scanning mode (24 scans across the well area). The plates were imaged on a PerkinElmer Phenix high content imaging platform. Using a Columbus image analysis pipeline, individual nuclei were located by Hoechst 33342 stain and the methylation level was calculated from the Alexa647-related intensity in the same area. IC50 values were obtained from the mean Alexa647-related intensity per cell by calculating percent inhibition (%1) for each well relative to controls on the same plate (% l=(1-CN)/(CP−CN) where CN/CP are the averages of the negative/maximum inhibition controls, respectively), then fitting the %1 data vs. compound concentration [I] to % I=(A+((B−A)/(1+((C/[I])^D)))) where A is the lower asymptote, B is the upper asymptote, C is the IC50 value, and D is the slope.

SMILES | IC50 [1] | IC50 [2]
CCOc1nc(N2CCN(C(=O)OC)CC2)ccc1C(=O)NC[C@@H](O)[C@@H]1Cc2ccccc2CN1 [Example 1, Methyl 4-(6-ethoxy-5-(((R)-2-hydroxy-2-((S)-1,2,3,4-tetrahydroisoquinolin-3-yl)ethyl)carbamoyl)pyridin-2-yl)piperazine-1-carboxylate dihydrochloride] | 37 nM | 0.2 nM
CCOc1nc(N2CCC(O)CC2)ccc1C(=O)NC[C@@H](O)[C@@H]1Cc2ccccc2CN1 [Example 2, 2-Ethoxy-N-((R)-2-hydroxy-2-((S)-1,2,3,4-tetrahydroisoquinolin-3-yl)ethyl)-6-(4-hydroxypiperidin-1-yl)nicotinamide dihydrochloride] | 102 nM | 23.3 nM
CCOc1nc(N2CCCOCC2)ccc1C(=O)NC[C@@H](O)[C@@H]1Cc2ccccc2CN1 [Example 3, 2-Ethoxy-N-((R)-2-hydroxy-2-((S)-1,2,3,4-tetrahydroisoquinolin-3-yl)ethyl)-6-(1,4-oxazepan-4-yl)nicotinamide dihydrochloride] | 70 nM | 5.6 nM
CCOc1nc(N2CCN(C(C)=O)CC2)ccc1C(=O)NC[C@@H](O)[C@@H]1Cc2ccccc2CN1 [Example 4, 6-(4-Acetylpiperazin-1-yl)-2-ethoxy-N-((R)-2-hydroxy-2-((S)-1,2,3,4-tetrahydroisoquinolin-3-yl)ethyl)nicotinamide dihydrochloride] | 26 nM | 1.3 nM
CC(=O)N1CCC(Oc2nccc(C(=O)NC[C@@H](O)[C@@H]3Cc4ccccc4CN3)c2Cl)CC1 [Example 5, 2-((1-Acetylpiperidin-4-yl)oxy)-3-chloro-N-((R)-2-hydroxy-2-((S)-1,2,3,4-tetrahydroisoquinolin-3-yl)ethyl)isonicotinamide dihydrochloride] | 26 nM | 6 nM
CCOc1cnc(CC2CCN(C(C)=O)CC2)cc1C(=O)NC[C@@H](O)[C@@H]1Cc2ccccc2CN1 [Example 6, 2-((1-acetylpiperidin-4-yl)methyl)-5-ethoxy-N-((R)-2-hydroxy-2-((S)-1,2,3,4-tetrahydroisoquinolin-3-yl)ethyl)isonicotinamide dihydrochloride] | 202 nM | 75.4 nM
CCOc1nc(OC2CCN(C(C)=O)CC2)ccc1C(=O)NC[C@@H](O)[C@@H]1Cc2ccccc2CN1 [Example 7, 6-((1-acetylpiperidin-4-yl)oxy)-2-ethoxy-N-((R)-2-hydroxy-2-((S)-1,2,3,4-tetrahydroisoquinolin-3-yl)ethyl)nicotinamide hydrochloride salt] | 135 nM | 16.5 nM
CCOc1c(C(=O)NC[C@@H](O)[C@@H]2Cc3ccccc3CN2)ccnc1NC1CCN(C(C)=O)CC1 [Example 8, 2-((1-Acetylpiperidin-4-yl)amino)-3-ethoxy-N—((R)-2-hydroxy-2-((S)-1,2,3,4-tetrahydroisoquinolin-3-yl)ethyl)isonicotinamide Dihydrochloride Salt] | 135 nM | 112 nM
CCOc1nc(N2CCOCC2)ccc1C(=O)NC[C@@H](O)[C@@H]1Cc2ccccc2CN1 [Example 9, 2-Ethoxy-N—((R)-2-hydroxy-2-((S)-1,2,3,4-tetrahydroisoquinolin-3-yl)ethyl)-6-morpholinonicotinamide] | 251 nM | 31.5 nM
